Experimental data from patent US20030064380A1, “Anergy-regulated molecules” (The Center For Blood Research, Inc., priority 2001, published 2003).

Assays:
[1] = system: NFAT, AP-1 and NFκB DNA-binding activity; assay: electrophoretic mobility shift assay of nuclear extracts of stimulated Th1 cells; type: cell-based
Procedure: Nuclear extracts were prepared from Th1 cells, unstimulated or stimulated for 60 minutes with 500 nM ionomycin or 20 nM PMA plus 500 nM ionomycin. Binding reactions were performed as previously described (Macian et al., (2000) EMBO J. 19: […]) using NFAT, AP-1 and NF-KB specific probes (Goldfeld et al., (1993) J. Exp. Med. 178: 1365-1379).

[2] = system: Th2 cells; assay: cytokine mRNA levels in Th2 cells after ionomycin pretreatment; type: cell-based
Procedure: Total cellular RNA was purified from resting cells or cells stimulated with APC and antigen or anti-CD3 plus anti-CD28 for 4 h, using Ultraspec reagent (Biotecx) and analyzed using the RiboQuant multiprobe RNase protection kit and specific multi-set probes (Pharmingen) according to the manufacturer's instructions. Jurkat cells were transfected by electroporation in serum-free medium with pulses of 250 V and 960 μF with […] of pEGFPN1 (Clontech) or pNLS-NFAT1 (ST2+5+8) (Okamura et al., (2000) Mol. Cell. 6: 539-550). RNA from transiently transfected Jurkat cells was obtained after selecting transfected cells for expression of a cotransfected murine CD4 plasmid using magnetic beads (Dynal).
Thus the net effect of a tolerising stimulus on T cells is to skew the cytokine response towards production of the immunosuppressive cytokine […], while down-regulating production of multiple other cytokines and chemokines associated with a productive immune response.

In the case of C[C@H](CCC(=O)O)C[C@H](C)C[C@H](C)C(=O)/C=C(\O)[C@H](C)C[C@H](C)C/C=C/[C@@H](C)[C@@H](O)[C@@H](C)[C@@H](O)C[C@@H]1CC[C@@](C)([C@H]2CC[C@@](C)([C@@H](C)O)O2)O1 [Ionomycin, ionomycin], the “AP-1 or NFκB DNA-binding activity” value [1] is reported as “no increase”, the “NFAT DNA-binding activity” value [1] is reported as “increased” and the IL-10 transcript levels [2] is reported as “not affected”. The “reduction in mRNA levels of IL-4, IL-5 and IL-13” value [2] was “approximately 70%”.
